Source: article PMC3870587 (Biochemistry, 2013)
“And” between values parts separate entries of the source, which are not always exact repeats. Equal values may be shown once.

Assays:
human MTAP (apo) [1] = target: T1, human MTAP (apo) (Homo sapiens, UniProt Q13126); assay: Isothermal titration calorimetry of ligands binding to apo MTAP in Hepes buffer; conditions: for ΔΔG relative to MTA; contribution of the 9-deazaadenine (protonated N7): binding to apo MTAP, ΔG of MTA subtracted
T1 sequence (Q13126 1-283): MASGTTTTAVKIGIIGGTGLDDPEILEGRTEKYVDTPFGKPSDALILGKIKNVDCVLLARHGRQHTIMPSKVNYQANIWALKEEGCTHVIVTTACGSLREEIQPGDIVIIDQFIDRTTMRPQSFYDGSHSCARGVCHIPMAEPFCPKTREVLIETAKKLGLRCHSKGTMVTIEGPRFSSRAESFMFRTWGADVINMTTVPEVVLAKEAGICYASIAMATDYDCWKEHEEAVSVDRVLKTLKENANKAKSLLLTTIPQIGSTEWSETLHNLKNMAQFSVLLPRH

MTAP = conditions: steady-state kinetic analysis; ref [7],[12]; cited from earlier work
MTAP:phosphate complex [2] = conditions: read-out: dissociation constant (Kd); binding to MTAP:phosphate, ternary complex; ref [9],[10],[11]; cited from earlier work
human MTAP (apo) [3] = target: T1, human MTAP (apo); assay: Isothermal titration calorimetry of ligands binding to apo MTAP in Tris buffer; conditions: for ΔHTris [n] / −TΔSTris: apo MTAP; for ΔHTris [n]: Tris buffer pH 7.4; for −TΔSTris: Tris; for ΔHcorrection share of total binding free energy: binding to apo MTAP; for ΔHcorrection / −TΔScorrection: without protonation/deprotonation effects
[4] = tested on: human head and neck cancer; conditions: immunodeficient mice; ref [4],[5]; cited from earlier work
MTAP:phosphate complex [5] = assay: Binding of TS analogues to the MTAP:phosphate complex; parameters: species or system human; conditions: from 40 nM to 90 pM
human lung cancer = conditions: immunodeficient mice; ref [4],[5]; cited from earlier work
[6] = apo MTAP, Hepes, all three sites or first-listed set of sites
[7] = apo MTAP, Hepes, second-listed set of sites
[8] = all three sites or first two sites
[9] = all three sites [3] or first two sites [2]

## 5'-methylthioadenosine [MTA, reference compound]
Human MTAP (apo) [1]; [6]
  ΔG: -11.1 kcal/mol and -11.1 ± 0.4 kcal/mol
  ΔHHepes: -1.0 ± 0.3 kcal/mol
  −TΔSHepes: -10.1 kcal/mol and -10.1 ± 0.5 kcal/mol
Human MTAP (apo) [1]; [7]
  ΔG: -8.4 ± 0.1 kcal/mol
  ΔHHepes: -6.1 ± 0.2 kcal/mol
  −TΔSHepes: -2.3 ± 0.2 kcal/mol
MTAP
  Km: 1.7 µM

## CSC[C@H]1CN(Cc2c[nH]c3c(N)ncnc23)C[C@@H]1O [MT-DADMe-ImmA]
MTAP:phosphate complex [2]
  Kd: 0.09 nM
Human MTAP (apo) [3]; [8]
  NumberProton (protons released from the binding of ligand to MTAP): 0.2 and 0.2 ± 0.1
  ΔHTris - ΔHHepes: -1.2 ± 0.8 kcal/mol
  −TΔSTris: 1.3 ± 0.3 kcal/mol
  ΔHcorrection: -9.2 kcal/mol and -9.2 ± 0.9 kcal/mol
  −TΔScorrection: -0.9 ± 0.9 kcal/mol
Human MTAP (apo) [3]; [9]
  ΔHTris [n]: -11.4 ± 0.2 kcal/mol
Human MTAP (apo) [3]; third site [1]
  ΔHTris [n]: -10.3 ± 0.4 kcal/mol
Human MTAP (apo) [3]; third site
  −TΔSTris: 0.8 ± 0.4 kcal/mol
  NumberProton (protons released from the binding of ligand to MTAP): 1.1 and 1.1 ± 0.2
  ΔHTris - ΔHHepes: -7 ± 1 kcal/mol
  ΔHcorrection: 2 ± 1 kcal/mol
  −TΔScorrection: -12 ± 1 kcal/mol
Human MTAP (apo) [3]
  ΔHcorrection share of total binding free energy: 91%
Human MTAP (apo) [1]; [6]
  ΔG: -10.1 kcal/mol and -10.1 ± 0.2 kcal/mol
  ΔHHepes: -10.2 ± 0.8 kcal/mol
  −TΔSHepes: 0.1 ± 0.8 kcal/mol
Human MTAP (apo) [1]; [7]
  ΔG: -9.5 ± 0.1 kcal/mol
  ΔHHepes: -3 ± 1 kcal/mol
  −TΔSHepes: -7 ± 1 kcal/mol
Human MTAP (apo) [1]
  ΔΔG relative to MTA; contribution of the 9-deazaadenine (protonated N7): -1.7 kcal/mol
[4]
  effect on human head and neck cancer: causes remission of human head and neck cancer
MTAP:phosphate complex [5]
  decrease of Kd, apo MTAP to ternary complex with phosphate: 440 fold
Human lung cancer
  effect on human lung cancer: suppresses the growth and metastases of human lung cancer

## CSCC1NC(c2c[nH]c3c(N)ncnc23)[C@@H](O)[C@H]1O (stereo partly shown) [MT-ImmA]
MTAP:phosphate complex [2]
  Kd: 1 nM
Human MTAP (apo) [3]; [8]
  NumberProton (protons released from the binding of ligand to MTAP): 0.5 and 0.50 ± 0.01
  ΔHTris - ΔHHepes: -3.23 ± 0.09 kcal/mol
  −TΔSTris: 3.1 ± 0.1 kcal/mol
  ΔHcorrection: -7.15 kcal/mol and -7.15 ± 0.09 kcal/mol
  −TΔScorrection: -2.6 ± 0.1 kcal/mol
Human MTAP (apo) [3]; [9]
  ΔHTris [n]: −12.82 ± 0.05 [3] kcal/mol
Human MTAP (apo) [3]
  ΔHcorrection share of total binding free energy: 74%
Human MTAP (apo) [1]; [6]
  ΔG: -9.7 ± 0.1 kcal/mol
  ΔHHepes: -9.59 ± 0.08 kcal/mol
  −TΔSHepes: -0.1 ± 0.1 kcal/mol
Human MTAP (apo) [1]
  ΔΔG relative to MTA; contribution of the 9-deazaadenine (protonated N7): -1.3 kcal/mol

## Nc1ncnc2c(CN3CC(CSc4ccc(Cl)cc4)[C@H](O)C3)c[nH]c12 (stereo partly shown) [pClPhT-DADMe-ImmA]
MTAP:phosphate complex [2]
  Kd: 0.01 nM

## O=P(O)(O)O [phosphate, potassium phosphate]
Human MTAP (apo) [3]; [8]
  NumberProton (protons released from the binding of ligand to MTAP): −0.91 ± 0.05
  ΔHTris - ΔHHepes: 5.9 ± 0.3 kcal/mol
  −TΔSTris: -3.74 ± 0.07 kcal/mol
  ΔHcorrection: -13.1 kcal/mol and -13.1 ± 0.4 kcal/mol
  −TΔScorrection: 6.6 ± 0.4 kcal/mol
Human MTAP (apo) [3]; [9]
  ΔHTris [n]: −2.77 ± 0.04 [3] kcal/mol
Human MTAP (apo) [3]; pH 7.4
  protons absorbed from the buffer on binding to apo MTAP: 0.91 ± 0.05
Human MTAP (apo) [1]; apo MTAP, Hepes, all three sites
  Kd: 17000 nM
Human MTAP (apo) [1]; [6]
  ΔG: -6.51 kcal/mol and -6.51 ± 0.06 kcal/mol
  ΔHHepes: -8.7 ± 0.3 kcal/mol
  −TΔSHepes: 2.2 ± 0.3 kcal/mol
